Experiments:
Type in all cases: cell-based
[1] = system: Ajuga reptans suspension culture; assay: Differential induction of diterpenes (Compound 6) in Ajuga reptans suspension culture; conditions: B49 production medium, treated day 7, harvested after a further seven days, n = 3
Method: Differential induction of diterpenoids in the Ajuga reptans suspension culture was performed by inoculating 500 mL conical flasks containing 190 mL of a secondary metabolite production medium B49 (Gamborg's B5, 5% sucrose, no hormones), with 70 mL of 14 day old suspension culture. The culture was incubated at 25° C. in continuous low light and shaken at 140 rpm. Cultures were grown for seven days (25° C. in continuous low light and shaken at 140 rpm) and then dispensed as 5 mL aliquots to 6-well plates (Bibby Sterilin Ltd, Stone, UK). Cultures were then treated using one of the following protocols:
Triplicate samples were set up for each treatment. Cultures were incubated for a further seven days before harvest for extraction and analysis of diterpenoids.
Cultures were harvested by freezing entire 6-well plates at −20° C. and then freeze-drying cultures in situ. […] After standing for one hour 500 μL of filtered methanol extract was removed and immediately analyzed.
HPLC analysis was carried out using an Xterra RP 18 column (dimensions 3×150 mm with 5 μm packing) using an isocratic solvent system of water (two volumes): acetonitrile (three volumes) to which has been added 0.1% acetic acid. […] The eluate was monitored by UV absorption. The principal diterpene metabolite (Compound 6) has UV absorption maxima at 230, 290 and 340 nm and can be sensitively monitored at any of these wavelengths. […]

[2] = system: C. acinaciformis suspension culture; assay: Effect of methyl jasmonate on catechin accumulation in Crassula acinaciformis suspension culture; conditions: M33 medium, added on day 7, by day 16
Method: Catechin derivative profiles in the C. acinaciformis suspension culture were obtained from incubations in 250 mL conical flasks containing either 100 mL of M62 growth medium or 100 mL of a secondary metabolite production medium M33 (Murashige and Skoog (1962); modified to contain 5% sucrose and no hormones) inoculated with 40 mL of 21 day old suspension culture. The cultures were incubated under low light conditions (approximately 30 lux) at 25° C. […] 10 mL culture samples were taken at regular intervals for 16 days following the day of subculture to M33 medium. All culture samples were centrifuged for five minutes at 4000 rpm, and the cell residue was freeze-dried. Extraction, sample preparation, and HPLC analysis were performed as described in Example 1.

[3] = system: C. dejecta suspension culture; assay: Differential induction of catechin accumulation in Crassula dejecta suspension culture
Method: Differential induction of catechin derivatives in the C. dejecta suspension culture was performed in 250 mL conical flasks containing 100 mL of B105 growth medium or 100 mL of a secondary metabolite production medium B49 (Gamborg's B5, with 5% sucrose, and no hormones), inoculated with 40 mL of 21 day old suspension culture. The cultures were incubated under low light conditions (approximately 30 lux) at 25° C. Cultures were treated using one of each of the following protocols:
(1) B105 growth medium (no additions) used as is;
(3) Filter-sterilized aqueous zeatin (10 μM) was added at day 7 to a culture grown on B105 medium;
(4) B49 production medium (no additions) used as is;
(6) Filter-sterilized clofibrate (0.5 mM final concentration) was added at day 7 to a culture grown on B49 medium. Ten milliliters of culture samples were taken at regular intervals for 17 days following the day of subculture to B105 or B49 medium. All culture samples were centrifuged for five minutes at 4000 rpm, and the cell residue was freeze-dried. Extraction, sample preparation, and HPLC analysis were performed as described in Example 1.

Q: `CC/C=C\CC1C(=O)CCC1CC(=O)OC` (stereo not shown) [methyl jasmonate] was tested. Which “Compound 6 (mg/L culture) Mean” value [1] did it give?
A: 9.52 mg/L culture

Q: What about the catechin level [2] of the same compound?
A: approximate doubling of catechin level

Q: What about the “induction of EGCG and other catechins” value ([3]; cultures grown on both B105 and B49 media, added at day 7) of the same compound?
A: induced EGCG and other catechins

Q: What about the “accumulation of EGCG” value ([3]; on B49, methyl jasmonate added at day 7) of the same compound?
A: ten-fold

From patent publication US20030175678A1, “Methods for identifying genes regulating desired cell phenotypes” (priority 2001, published 2003)
